The target of this assay is His-tagged Human KRAS^G12D (Homo sapiens (Human), UniProt P01116, G12D). Kind of assay: HTRF KRAS G12D GTP binding assay. The conditions noted are these: displacement of GTP-Red tracer. On the procedure: KRAS^G12D was used in this assay.
His-tagged Human KRAS^G12D, sequence (P01116-2 other isoform, or with tags, fused parts or gaps G12D): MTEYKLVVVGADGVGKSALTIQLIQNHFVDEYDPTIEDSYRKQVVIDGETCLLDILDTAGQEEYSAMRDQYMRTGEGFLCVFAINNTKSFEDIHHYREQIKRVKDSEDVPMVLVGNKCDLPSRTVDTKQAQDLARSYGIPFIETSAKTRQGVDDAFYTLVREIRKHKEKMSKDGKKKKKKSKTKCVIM
The ability of a test compound to bind to KRAS^G12D was measured by using an HTRF KRAS^G12D GTP Binding Kit (Cisbio, 63ADK000CB27PEG). […] 5 μL of compound solution was added to each well after serial dilution, followed by addition of 5 μL of GDP (50 nM) solution. After 30 minutes incubation at room temperature, 1×6His Eu cryptate antibody solution and GTP-Red tracer were added to the plate, then incubated for another 30 minutes. The HTRF signal was measured with a VICTOR Nivo multimode plate reader according to the manufacturer's instructions. The percent inhibition was calculated using the following formula: […]
(where the “Maximum Signal” are wells containing DMSO without inhibitor; the “Minimum Signal” are wells containing reference inhibitory component (GDP); the “Test compound signal” are wells containing test compound (inhibitor) at established concentrations).
IC50 was determined by fitting percent inhibition at each inhibitor concentration to the four-parameter nonlinear logistic equation using GraphPad Prism.
What is called IC50 is the concentration that inhibits the measured activity by half. The low end stands for greater potency in that assay, the high end for weaker potency in that assay. As for `CCc1c(F)ccc2cc(O)cc(-c3ncc4c(N5CCC6(CCOC6)C5)nc(OC[C@@]56CCCN5C[C@H](F)C6)nc4c3F)c12` (stereo partly shown) [Compound 1a], the concentration for half-maximal inhibition (IC50) was determined as 0.752 µM.

Consider `CCc1c(F)ccc2cc(O)cc(-c3ncc4c(N5CCCC6(CCO6)C5)nc(OC[C@@H]5C[C@@H](F)CN5C)nc4c3F)c12` (stereo partly shown) [Compound 3a], for which the 50% inhibitory concentration (IC50) turned out to be 0.141 µM.

For `CCc1c(F)ccc2cc(O)cc(-c3ncc4c(N5CCCC6(CCN6)C5)nc(OC[C@@]56CCCN5C[C@H](F)C6)nc4c3F)c12` (stereo partly shown) [Compound 4a], the half-inhibitory concentration (IC50) is over 1 µM.

The molecule `CCc1c(F)ccc2cc(O)cc(-c3ncc4c(N5CCC[C@@H](OC)C5)nc(OC[C@@]56CCCN5C[C@H](F)C6)nc4c3F)c12` [Compound 5a] came in with a concentration for half-maximal inhibition (IC50) of 0.652 µM.

Take `CCc1c(F)ccc2cc(O)cc(-c3ncc4c(N5CC6(CCO6)C5)nc(OC[C@@]56CCCN5C[C@H](F)C6)nc4c3F)c12` [Compound 6a]: the half-inhibitory concentration (IC50) was over 1 µM.

`CCc1c(F)ccc2cc(O)cc(-c3ncc4c(N5CC6CC(CO)(C6)C5)nc(OC[C@@]56CCCN5C[C@H](F)C6)nc4c3F)c12` [Compound 7a] registered an IC50 of over 1 µM.

`CCc1c(F)ccc2cc(O)cc(-c3ncc4c(N5CCC[C@H]5C(=O)O)nc(OC[C@@]56CCCN5C[C@H](F)C6)nc4c3F)c12` [Compound 8] gave a half-maximal inhibitory concentration (IC50) of over 1 µM.

Molecule `CCc1c(F)ccc2cc(O)cc(-c3ncc4c(N5CCCC6(CCO6)C5)nc(OC[C@H](C)OC)nc4c3F)c12` (stereo partly shown) [Compound 11a] gave a 50% inhibitory concentration (IC50) of over 1 µM.

As to `CCc1c(F)ccc2cc(O)cc(-c3ncc4c(N5C6CCC5COC6)nc(OC[C@@]56CCCN5C[C@H](F)C6)nc4c3F)c12` [Compound 12], the half-inhibitory concentration (IC50) was over 1 µM.

The molecule `CCc1c(F)ccc2cc(O)cc(-c3ncc4c(N5CCC[C@]6(CCO6)C5)nc(OCC5(CN6CCN(C)CC6)CC5)nc4c3F)c12` [Compound 12a] registered an IC50 of 0.0121 µM.

In turn, `CCc1c(F)ccc2cc(O)cc(-c3ncc4c(N5CC6CCC(C5)O6)nc(OC[C@@]56CCCN5C[C@H](F)C6)nc4c3F)c12` [Compound 13] showed an IC50 of 0.979 µM.

Consider `CCc1c(F)ccc2cc(O)cc(-c3ncc4c(N5CCC[C@]6(CCO6)C5)nc(OCC5(CN6CCC6)CC5)nc4c3F)c12` [Compound 13a], for which the IC50 was 0.0132 µM.

`CCc1c(F)ccc2cc(O)cc(-c3ncc4c(N5CCCC56COC6)nc(OC[C@@]56CCCN5C[C@H](F)C6)nc4c3F)c12` [Compound 14] showed a half-maximal inhibitory concentration (IC50) of over 1 µM.

As for `Cc1ccc2[nH]ncc2c1-c1ccc2c(N3CCC[C@]4(CCO4)C3)nc(OCC3(CN(C)C)CC3)nc2c1F` [Compound 14a], the concentration for half-maximal inhibition (IC50) was over 1 µM.

Molecule `CCc1c(F)ccc2cc(O)cc(-c3ncc4c(N5C6CCC5CC6)nc(OC[C@@]56CCCN5C[C@H](F)C6)nc4c3F)c12` [Compound 15] displayed a half-maximal inhibitory concentration (IC50) of over 1 µM.

In turn, `CCc1c(F)ccc2cc(O)cc(-c3ncc4c(N5CCC(C)(O)C5)nc(OC[C@@]56CCCN5C[C@H](F)C6)nc4c3F)c12` (stereo partly shown) [Compound 16] showed an IC50 of over 1 µM.

Consider `CCc1c(F)ccc2cc(O)cc(-c3ncc4c(N5C6CCCC5CC6)nc(OC[C@@]56CCCN5C[C@H](F)C6)nc4c3F)c12` [Compound 17], for which the IC50 was over 1 µM.

`CCc1c(F)ccc2cc(O)cc(-c3ncc4c(N5CC(C)(O)C5)nc(OC[C@@]56CCCN5C[C@H](F)C6)nc4c3F)c12` [Compound 18] registered a 50% inhibitory concentration (IC50) of over 10 µM.

Take `CCc1c(F)ccc2cc(O)cc(-c3ncc4c(N5CCCC5c5ccccc5)nc(OC[C@@]56CCCN5C[C@H](F)C6)nc4c3F)c12` (stereo partly shown) [Compound 19]: the 50% inhibitory concentration (IC50) was over 10 µM.

`CCc1c(F)ccc2cc(O)cc(-c3ncc4c(N5CCCC(c6ccccc6)C5)nc(OC[C@@]56CCCN5C[C@H](F)C6)nc4c3F)c12` (stereo partly shown) [Compound 20] had an IC50 of over 10 µM.

`CCc1c(F)ccc2cc(O)cc(-c3ncc4c(N5CC(F)(F)C[C@H]5CO)nc(OC[C@@]56CCCN5C[C@H](F)C6)nc4c3F)c12` [Compound 21] came in with an IC50 of over 10 µM.

Consider `CCc1c(F)ccc2cc(O)cc(-c3ncc4c(N5CCC[C@@]5(C)CO)nc(OC[C@@]56CCCN5C[C@H](F)C6)nc4c3F)c12` [Compound 22], for which the IC50 is over 10 µM.
